Measured values from patent US10005767B2, “Compositions and methods for inhibition of the JAK pathway” (Rigel Pharmaceuticals, Inc., priority 2009, dated 2018).

tested on: human primary T-cells, IL-2 stimulated proliferation (JAK-1 and JAK-3 dependent; reported as JAK3 activity); test: Human primary T-cell proliferation stimulated by IL-2 (Example 3); format: cell-based; details: Homo sapiens, T-cell, tested under conditions described in Example 3 (IL-2 stimulated human primary T-cell proliferation); read-out: ability to inhibit JAK3 activity, IC50 range (Table V)
Outline: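 Peripheral-blood human T-cells pre-activated via TCR/CD28, IL-2-starved overnight, then cultured 72 h at 37 °C with compound in Yssel's medium containing IL-2 (80 U/mL in cell suspension). Proliferation read as viable-cell ATP by CellTiter-Glo luminescence; reduction versus control taken as JAK pathway inhibition.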

Row | Compound | IC50 [nM]
1 | Cc1cnc(Nc2ccc(Cl)c(OC(F)(F)F)c2)nc1Nc1ccc2oc(=O)[nH]c2c1 [Compound I-180, 5-[2-(4-Chloro-3-trifluoromethoxy-phenylamino)-5-methyl-pyrimidin-4-ylamino]-3H-benzooxazol-2-one] | < 500
2 | COc1cc(Nc2ncc(C)c(Nc3ccc4oc(=O)[nH]c4c3)n2)ccc1Cl [Compound I-181, 5-[2-(4-Chloro-3-methoxy-phenylamino)-5-methyl-pyrimidin-4-ylamino]-3H-benzooxazol-2-one] | < 500
3 | CCOc1cc(Nc2ncc(C)c(Nc3ccc4oc(=O)[nH]c4c3)n2)ccc1Cl [Compound I-182, 5-[2-(4-Chloro-3-ethoxy-phenylamino)-5-methyl-pyrimidin-4-ylamino]-3H-benzooxazol-2-one] | < 500
4 | COc1cc(Nc2ncc(C)c(Nc3ccc4oc(=O)[nH]c4c3)n2)ccc1F [Compound I-183, 5-[2-(4-Fluoro-3-methoxy-phenylamino)-5-methyl-pyrimidin-4-ylamino]-3H-benzooxazol-2-one] | < 500
5 | Cc1cnc(Nc2cc(Cl)cc(Cl)c2)nc1Nc1ccc2oc(=O)[nH]c2c1 [Compound I-184, 5-[2-(3,5-Dichloro-phenylamino)-5-methyl-pyrimidin-4-ylamino]-3H-benzooxazol-2-one] | < 500
6 | Cc1cnc(Nc2cc(Cl)cc(Br)c2)nc1Nc1ccc2oc(=O)[nH]c2c1 [Compound I-185, 5-[2-(3-Bromo-5-chloro-phenylamino)-5-methyl-pyrimidin-4-ylamino]-3H-benzooxazol-2-one] | > 10000
7 | Cc1cnc(Nc2cc(F)cc(Cl)c2)nc1Nc1ccc2oc(=O)[nH]c2c1 [Compound I-186, 5-[2-(3-Chloro-5-fluoro-phenylamino)-5-methyl-pyrimidin-4-ylamino]-3H-benzooxazol-2-one] | < 500
8 | Cc1cnc(Nc2cc(Cl)cc(C#N)c2)nc1Nc1ccc2oc(=O)[nH]c2c1 [Compound I-187, 3-Chloro-5-[5-methyl-4-(2-oxo-2,3-dihydro-benzooxazol-5-ylamino)-pyrimidin-2-ylamino]-benzonitrile] | < 500
9 | Cc1cnc(Nc2ccc(Br)c(C(F)(F)F)c2)nc1Nc1ccc2oc(=O)[nH]c2c1 [Compound I-188, 5-[2-(4-Bromo-3-trifluoromethyl-phenylamino)-5-methyl-pyrimidin-4-ylamino]-3H-benzooxazol-2-one] | < 500
10 | Cc1cnc(Nc2cc(Br)cc(C(F)(F)F)c2)nc1Nc1ccc2oc(=O)[nH]c2c1 [Compound I-189, 5-[2-(3-Bromo-5-trifluoromethyl-phenylamino)-5-methyl-pyrimidin-4-ylamino]-3H-benzooxazol-2-one] | < 500
11 | Cc1cc(Nc2ncc(C)c(Nc3ccc4oc(=O)[nH]c4c3)n2)ccc1C(=O)NC1CCC1 [Compound I-190, N-Cyclobutyl-2-methyl-4-[5-methyl-4-(2-oxo-2,3-dihydro-benzooxazol-5-ylamino)-pyrimidin-2-ylamino]-benzamide] | < 500
12 | Cc1cnc(Nc2ccc(OCCN3CCOCC3)c(Cl)c2)nc1Nc1ccc2oc(=O)[nH]c2c1 [Compound I-191, 5-{2-[3-Chloro-4-(2-morpholin-4-yl-ethoxy)-phenylamino]-5-methyl-pyrimidin-4-ylamino}-3H-benzooxazol-2-one] | < 500
13 | Cc1cnc(Nc2ccc(OCCN3CCOCC3)cc2)nc1Nc1ccc2oc(=O)[nH]c2c1 [Compound I-192, 5-{5-Methyl-2-[4-(2-morpholin-4-yl-ethoxy)-phenylamino]-pyrimidin-4-ylamino}-3H-benzooxazol-2-one] | < 500
14 | COc1cc(Nc2ncc(C)c(Nc3ccc4oc(=O)[nH]c4c3)n2)c(F)cc1F [Compound I-193, 5-[2-(2,4-Difluoro-5-methoxy-phenylamino)-5-methyl-pyrimidin-4-ylamino]-3H-benzooxazol-2-one] | 500 to 5000
15 | CCOc1ccc(Nc2ncc(C)c(Nc3ccc4oc(=O)[nH]c4c3)n2)cc1Cl [Compound I-194, 5-[2-(3-Chloro-4-ethoxy-phenylamino)-5-methyl-pyrimidin-4-ylamino]-3H-benzooxazol-2-one] | < 500
16 | Cc1cnc(Nc2ccc(OCC3CCC3)cc2)nc1Nc1ccc2oc(=O)[nH]c2c1 [Compound I-195, 5-[2-(4-Cyclobutylmethoxy-phenylamino)-5-methyl-pyrimidin-4-ylamino]-3H-benzooxazol-2-one] | < 500
17 | Cc1cnc(Nc2ccc(OCC(C)C)cc2)nc1Nc1ccc2oc(=O)[nH]c2c1 [Compound I-196, 5-[2-(4-Isobutoxy-phenylamino)-5-methyl-pyrimidin-4-ylamino]-3H-benzooxazol-2-one] | < 500
18 | Cc1cnc(Nc2ccc(OCCC(C)C)cc2)nc1Nc1ccc2oc(=O)[nH]c2c1 [Compound I-197, 5-{5-Methyl-2-[4-(3-methyl-butoxy)-phenylamino]-pyrimidin-4-ylamino}-3H-benzooxazol-2-one] | > 10000

Row | Compound | IC50 [nM]
19 | Cc1cc(F)cc(Nc2ncc(C)c(Nc3ccc4oc(=O)[nH]c4c3)n2)c1 [Compound I-199, 5-[2-(3-Fluoro-5-methyl-phenylamino)-5-methyl-pyrimidin-4-ylamino]-3H-benzooxazol-2-one] | < 500
20 | COc1c(F)ccc(Nc2ncc(C)c(Nc3ccc4oc(=O)[nH]c4c3)n2)c1F [Compound I-200, 5-[2-(2,4-Difluoro-3-methoxy-phenylamino)-5-methyl-pyrimidin-4-ylamino]-3H-benzooxazol-2-one] | < 500
21 | Cc1cnc(Nc2ccc(C(C)N3CCC3)cc2)nc1Nc1ccc2oc(=O)[nH]c2c1 (stereo not drawn) [Compound I-201, 5-(2-(4-(1-(azetidin-1-yl)ethyl)phenylamino)-5-methylpyrimidin-4-ylamino)benzo[d]oxazol-2(3H)-one] | < 500
22 | Cc1cnc(Nc2ccc(C(C)NC3CC3)cc2)nc1Nc1ccc2oc(=O)[nH]c2c1 (stereo not drawn) [Compound I-202, 5-(2-(4-(1-(cyclopropylamino)ethyl)phenylamino)-5-methylpyrimidin-4-ylamino)benzo[d]oxazol-2(3H)-one] | < 500
23 | Cc1cnc(Nc2ccc(C(C)N3CCCC3)cc2)nc1Nc1ccc2oc(=O)[nH]c2c1 (stereo not drawn) [Compound I-203, 5-(5-methyl-2-(4-(1-(pyrrolidin-1-yl)ethyl)phenylamino)pyrimidin-4-ylamino)benzo[d]oxazol-2(3H)-one] | < 500
24 | Cc1cnc(Nc2ccc(C(C)N3CCOCC3)cc2)nc1Nc1ccc2oc(=O)[nH]c2c1 (stereo not drawn) [Compound I-204, 5-(5-methyl-2-(4-(1-morpholinoethyl)phenylamino)pyrimidin-4-ylamino)benzo[d]oxazol-2(3H)-one] | < 500
25 | CCN(CC)C1CCN(C(C)c2ccc(Nc3ncc(C)c(Nc4ccc5oc(=O)[nH]c5c4)n3)cc2)C1 (stereo not drawn) [Compound I-205, 5-(2-(4-(1-(3-(diethylamino)pyrrolidin-1-yl)ethyl)phenylamino)-5-methylpyrimidin-4-ylamino)benzo[d]oxazol-2(3H)-one] | < 500
26 | Cc1cnc(Nc2ccc(C(C)NCc3ccccc3)cc2)nc1Nc1ccc2oc(=O)[nH]c2c1 (stereo not drawn) [Compound I-206, 5-(2-(4-(1-(benzylamino)ethyl)phenylamino)-5-methylpyrimidin-4-ylamino)benzo[d]oxazol-2(3H)-one] | < 500
27 | Cc1cnc(Nc2ccc(C(C)NC(C)C)cc2)nc1Nc1ccc2oc(=O)[nH]c2c1 (stereo not drawn) [Compound I-207, 5-(2-(4-(1-(isopropylamino)ethyl)phenylamino)-5-methylpyrimidin-4-ylamino)benzo[d]oxazol-2(3H)-one] | < 500
28 | CCCNC(C)c1cccc(Nc2ncc(C)c(Nc3ccc4oc(=O)[nH]c4c3)n2)c1 (stereo not drawn) [Compound I-208, 5-(5-methyl-2-(3-(1-(propylamino)ethyl)phenylamino)pyrimidin-4-ylamino)benzo[d]oxazol-2(3H)-one] | < 500
29 | Cc1cnc(Nc2cccc(C(C)NC(C)C)c2)nc1Nc1ccc2oc(=O)[nH]c2c1 (stereo not drawn) [Compound I-209, 5-(2-(3-(1-(isopropylamino)ethyl)phenylamino)-5-methylpyrimidin-4-ylamino)benzo[d]oxazol-2(3H)-one] | < 500
30 | Cc1cnc(Nc2cccc(C(C)N3CCC3)c2)nc1Nc1ccc2oc(=O)[nH]c2c1 (stereo not drawn) [Compound I-211, 5-(2-(3-(1-(azetidin-1-yl)ethyl)phenylamino)-5-methylpyrimidin-4-ylamino)benzo[d]oxazol-2(3H)-one] | < 500
31 | Cc1cnc(Nc2cccc(C(C)N3CCCC3)c2)nc1Nc1ccc2oc(=O)[nH]c2c1 (stereo not drawn) [Compound I-212, 5-(5-methyl-2-(3-(1-(pyrrolidin-1-yl)ethyl)phenylamino)pyrimidin-4-ylamino)benzo[d]oxazol-2(3H)-one] | < 500
32 | Cc1cnc(Nc2cccc(C(C)NCc3ccccc3)c2)nc1Nc1ccc2oc(=O)[nH]c2c1 (stereo not drawn) [Compound I-213, 5-(2-(3-(1-(benzylamino)ethyl)phenylamino)-5-methylpyrimidin-4-ylamino)benzo[d]oxazol-2(3H)-one] | < 500
33 | CCN(CC)C1CCN(C(C)c2cccc(Nc3ncc(C)c(Nc4ccc5oc(=O)[nH]c5c4)n3)c2)C1 (stereo not drawn) [Compound I-214, 5-(2-(3-(1-(3-(diethylamino)pyrrolidin-1-yl)ethyl)phenylamino)-5-methylpyrimidin-4-ylamino)benzo[d]oxazol-2(3H)-one] | < 500
34 | Cc1cnc(Nc2cccc(C(C)N3CCCCC3)c2)nc1Nc1ccc2oc(=O)[nH]c2c1 (stereo not drawn) [Compound I-215, 5-(5-methyl-2-(3-(1-(piperidin-1-yl)ethyl)phenylamino)pyrimidin-4-ylamino)benzo[d]oxazol-2(3H)-one] | < 500
35 | CCN(CC)C(C)c1cccc(Nc2ncc(C)c(Nc3ccc4oc(=O)[nH]c4c3)n2)c1 (stereo not drawn) [Compound I-216, 5-(2-(3-(1-(diethylamino)ethyl)phenylamino)-5-methylpyrimidin-4-ylamino)benzo[d]oxazol-2(3H)-one] | < 500
36 | Cc1cnc(Nc2cccc(C(C)N3CCOCC3)c2)nc1Nc1ccc2oc(=O)[nH]c2c1 (stereo not drawn) [Compound I-217, 5-(5-methyl-2-(3-(1-morpholinoethyl)phenylamino)pyrimidin-4-ylamino)benzo[d]oxazol-2(3H)-one] | < 500
